According to ChEMBL document CHEMBL1154649, “Anti-HBV agents. Part 3: preliminary structure-activity relationships of tetra-acylalisol A derivatives as potent hepatitis B virus inhibitors” (Bioorg Med Chem Lett, 2009):

Experiments:
Hepatitis B virus [1] = experiment: Antiviral activity against HBV assessed as inhibition of viral surface antigen secretion; assay type: functional, organism-based
[2] = Cytotoxicity against human HepG2(2.2.15) cells; assay type: cell-based
Hepatitis B virus [3] = experiment: Antiviral activity against HBV assessed as inhibition of viral early antigen secretion; assay type: functional, organism-based
[4] = Selectivity index, ratio of CC50 for human HepG2(2.2.15) cells to IC50 for HBV early antigen secretion; assay type: functional
[5] = Selectivity index, ratio of CC50 for human HepG2(2.2.15) cells to IC50 for HBV surface antigen secretion; assay type: functional

C[C@H](C[C@H](OC(=O)c1ccccc1)[C@@H](OC(=O)c1ccccc1)C(C)(C)OC(=O)c1ccccc1)C1=C2C[C@H](OC(=O)c3ccccc3)[C@H]3[C@@]4(C)CCC(=O)C(C)(C)[C@@H]4CC[C@]3(C)[C@@]2(C)CC1
IC50 (Hepatitis B virus [1]): > 1400 µM
CC50 [2]: > 1400 µM
IC50 (Hepatitis B virus [3]): > 1400 µM

CCC(=O)O[C@@H](C[C@@H](C)[C@]12CC[C@@]3(C)[C@@]1(C[C@H](OC(=O)CC)[C@H]1[C@@]4(C)CCC(=O)C(C)(C)[C@@H]4CC[C@@]13C)O2)[C@@H](OC(=O)CC)C(C)(C)OC(=O)CC
IC50 (Hepatitis B virus [1]): > 2200 µM
CC50 [2]: > 2200 µM
Ratio CC50/IC50 [4]: >1.7
IC50 (Hepatitis B virus [3]): 1300 µM

CC(C)CC(=O)O[C@@H](C[C@@H](C)C1=C2C[C@H](OC(=O)CC(C)C)[C@H]3[C@@]4(C)CCC(=O)C(C)(C)[C@@H]4CC[C@]3(C)[C@@]2(C)CC1)[C@@H](OC(=O)CC(C)C)C(C)(C)OC(=O)CC(C)C
IC50 (Hepatitis B virus [1]): > 2000 µM
CC50 [2]: > 2000 µM
IC50 (Hepatitis B virus [3]): > 2000 µM

C[C@H](C[C@H](OC(=O)COc1ccccc1)[C@@H](OC(=O)COc1ccccc1)C(C)(C)OC(=O)COc1ccccc1)C1=C2C[C@H](OC(=O)COc3ccccc3)[C@H]3[C@@]4(C)CCC(=O)C(C)(C)[C@@H]4CC[C@]3(C)[C@@]2(C)CC1
IC50 (Hepatitis B virus [1]): > 1400 µM
CC50 [2]: > 1400 µM
IC50 (Hepatitis B virus [3]): > 1400 µM

C[C@H](C[C@H](OC(=O)c1ccccc1I)[C@@H](OC(=O)c1ccccc1I)C(C)(C)OC(=O)c1ccccc1I)C1=C2C[C@H](OC(=O)c3ccccc3I)[C@H]3[C@@]4(C)CCC(=O)C(C)(C)[C@@H]4CC[C@]3(C)[C@@]2(C)CC1
IC50 (Hepatitis B virus [1]): > 1400 µM
CC50 [2]: > 1400 µM
IC50 (Hepatitis B virus [3]): > 1400 µM

C[C@H](C[C@H](OC(=O)c1ccc(Cl)cc1Cl)[C@@H](OC(=O)c1ccc(Cl)cc1Cl)C(C)(C)OC(=O)c1ccc(Cl)cc1Cl)C1=C2C[C@H](OC(=O)c3ccc(Cl)cc3Cl)[C@H]3[C@@]4(C)CCC(=O)C(C)(C)[C@@H]4CC[C@]3(C)[C@@]2(C)CC1
IC50 (Hepatitis B virus [1]): > 1000 µM
CC50 [2]: > 1000 µM
IC50 (Hepatitis B virus [3]): > 1000 µM

CCC(=O)O[C@@H](C[C@@H](C)C1=C2C[C@H](OC(=O)CC)[C@H]3[C@@]4(C)CCC(=O)C(C)(C)[C@@H]4CC[C@]3(C)[C@@]2(C)CC1)[C@@H](OC(=O)CC)C(C)(C)OC(=O)CC
Ratio CC50/IC50 [5]: >2.1
IC50 (Hepatitis B virus [1]): 900 µM
CC50 [2]: > 1900 µM
IC50 (Hepatitis B virus [3]): > 1900 µM

C[C@H](C[C@H](OC(=O)/C=C/c1ccccc1Cl)[C@@H](OC(=O)/C=C/c1ccccc1Cl)C(C)(C)OC(=O)/C=C/c1ccccc1Cl)C1=C2C[C@H](OC(=O)/C=C/c3ccccc3Cl)[C@H]3[C@@]4(C)CCC(=O)C(C)(C)[C@@H]4CC[C@]3(C)[C@@]2(C)CC1
IC50 (Hepatitis B virus [1]): > 1400 µM
CC50 [2]: > 1400 µM
IC50 (Hepatitis B virus [3]): > 1400 µM

C[C@H](C[C@H](OC(=O)c1ccc(Cl)cc1)[C@@H](OC(=O)c1ccc(Cl)cc1)C(C)(C)OC(=O)c1ccc(Cl)cc1)C1=C2C[C@H](OC(=O)c3ccc(Cl)cc3)[C@H]3[C@@]4(C)CCC(=O)C(C)(C)[C@@H]4CC[C@]3(C)[C@@]2(C)CC1
Ratio CC50/IC50 [5]: >2.9
IC50 (Hepatitis B virus [1]): 480 µM
CC50 [2]: > 1400 µM
IC50 (Hepatitis B virus [3]): > 1400 µM

C[C@H](C[C@H](OC(=O)c1ccccc1)[C@@H](OC(=O)c1ccccc1)C(C)(C)OC(=O)c1ccccc1)[C@]12CC[C@@]3(C)[C@@]1(C[C@H](OC(=O)c1ccccc1)[C@H]1[C@@]4(C)CCC(=O)C(C)(C)[C@@H]4CC[C@@]13C)O2
IC50 (Hepatitis B virus [1]): > 1700 µM
CC50 [2]: > 1700 µM
Ratio CC50/IC50 [4]: >1.5
IC50 (Hepatitis B virus [3]): 1100 µM

C[C@H](C[C@H](OC(=O)C1CC1)[C@@H](OC(=O)C1CC1)C(C)(C)OC(=O)C1CC1)C1=C2C[C@H](OC(=O)C3CC3)[C@H]3[C@@]4(C)CCC(=O)C(C)(C)[C@@H]4CC[C@]3(C)[C@@]2(C)CC1
IC50 (Hepatitis B virus [1]): > 2100 µM
CC50 [2]: > 2100 µM
IC50 (Hepatitis B virus [3]): > 2100 µM

Nc1ccn([C@@H]2CS[C@H](CO)O2)c(=O)n1 [LAMIVUDINE]
Ratio CC50/IC50 [5]: 2.7
IC50 (Hepatitis B virus [1]): 13000 µM
CC50 [2]: 35000 µM
Ratio CC50/IC50 [4]: 1.6
IC50 (Hepatitis B virus [3]): 22000 µM

C[C@H](C[C@H](OC(=O)/C=C/c1ccccc1)[C@@H](OC(=O)/C=C/c1ccccc1)C(C)(C)OC(=O)/C=C/c1ccccc1)C1=C2C[C@H](OC(=O)/C=C/c3ccccc3)[C@H]3[C@@]4(C)CCC(=O)C(C)(C)[C@@H]4CC[C@]3(C)[C@@]2(C)CC1
IC50 (Hepatitis B virus [1]): > 1200 µM
CC50 [2]: > 1200 µM
IC50 (Hepatitis B virus [3]): > 1200 µM

C[C@H](C[C@H](OC(=O)c1cccc([N+](=O)[O-])c1)[C@@H](OC(=O)c1cccc([N+](=O)[O-])c1)C(C)(C)OC(=O)c1cccc([N+](=O)[O-])c1)C1=C2C[C@H](OC(=O)c3cccc([N+](=O)[O-])c3)[C@H]3[C@@]4(C)CCC(=O)C(C)(C)[C@@H]4CC[C@]3(C)[C@@]2(C)CC1
IC50 (Hepatitis B virus [1]): > 1100 µM
CC50 [2]: > 1100 µM
IC50 (Hepatitis B virus [3]): > 1100 µM

C[C@H](C[C@H](OC(=O)[C@H]1CCC(=O)O1)[C@@H](OC(=O)[C@H]1CCC(=O)O1)C(C)(C)OC(=O)[C@@H]1CCC(=O)O1)C1=C2C[C@H](OC(=O)[C@@H]3CCC(=O)O3)[C@H]3[C@@]4(C)CCC(=O)C(C)(C)[C@@H]4CC[C@]3(C)[C@@]2(C)CC1
IC50 (Hepatitis B virus [1]): > 1600 µM
CC50 [2]: > 1600 µM
IC50 (Hepatitis B virus [3]): > 1600 µM

CCC(=O)O[C@@H](C[C@@H](C)C1=C2C[C@H](OC(=O)CC)[C@H]3[C@@]4(C)CCC(=O)C(C)(C)[C@@H]4CC[C@]3(C)[C@@]2(C)CC1)[C@@H](OC(=O)CC)C(C)(C)OC(C)=O
Ratio CC50/IC50 [5]: >3.7
IC50 (Hepatitis B virus [1]): 460 µM
CC50 [2]: > 1700 µM
Ratio CC50/IC50 [4]: >20
IC50 (Hepatitis B virus [3]): 86 µM

CC(=O)OC(C)(C)[C@H](OC(=O)C(C)C)[C@H](C[C@@H](C)C1=C2C[C@H](OC(=O)C(C)C)[C@H]3[C@@]4(C)CCC(=O)C(C)(C)[C@@H]4CC[C@]3(C)[C@@]2(C)CC1)OC(=O)C(C)C
IC50 (Hepatitis B virus [1]): > 1900 µM
CC50 [2]: > 1900 µM
Ratio CC50/IC50 [4]: >1.3
IC50 (Hepatitis B virus [3]): 1500 µM

CCCCCCCC(=O)O[C@@H](C[C@@H](C)C1=C2C[C@H](OC(=O)CCCCCCC)[C@H]3[C@@]4(C)CCC(=O)C(C)(C)[C@@H]4CC[C@]3(C)[C@@]2(C)CC1)[C@@H](OC(=O)CCCCCCC)C(C)(C)OC(=O)CCCCCCC
IC50 (Hepatitis B virus [1]): > 1600 µM
CC50 [2]: > 1600 µM
IC50 (Hepatitis B virus [3]): > 1600 µM

CCCCC(=O)O[C@@H](C[C@@H](C)C1=C2C[C@H](OC(=O)CCCC)[C@H]3[C@@]4(C)CCC(=O)C(C)(C)[C@@H]4CC[C@]3(C)[C@@]2(C)CC1)[C@@H](OC(=O)CCCC)C(C)(C)OC(=O)CCCC
IC50 (Hepatitis B virus [1]): > 1400 µM
CC50 [2]: > 1400 µM
IC50 (Hepatitis B virus [3]): > 1400 µM

CC(=O)OC(C)(C)[C@H](OC(=O)c1ccccc1)[C@H](C[C@@H](C)C1=C2C[C@H](OC(=O)c3ccccc3)[C@H]3[C@@]4(C)CCC(=O)C(C)(C)[C@@H]4CC[C@]3(C)[C@@]2(C)CC1)OC(=O)c1ccccc1
IC50 (Hepatitis B virus [1]): > 1700 µM
CC50 [2]: > 1700 µM
IC50 (Hepatitis B virus [3]): > 1700 µM

C[C@H](C[C@H](OC(=O)CCC1CCCCC1)[C@@H](OC(=O)CCC1CCCCC1)C(C)(C)OC(=O)CCC1CCCCC1)C1=C2C[C@H](OC(=O)CCC3CCCCC3)[C@H]3[C@@]4(C)CCC(=O)C(C)(C)[C@@H]4CC[C@]3(C)[C@@]2(C)CC1
IC50 (Hepatitis B virus [1]): > 1700 µM
CC50 [2]: > 1700 µM
IC50 (Hepatitis B virus [3]): > 1700 µM

CCOCC(=O)OC(C)(C)[C@H](OC(C)=O)[C@H](C[C@@H](C)C1=C2C[C@H](OC(C)=O)[C@H]3[C@@]4(C)CCC(=O)C(C)(C)[C@@H]4CC[C@]3(C)[C@@]2(C)CC1)OC(C)=O
Ratio CC50/IC50 [5]: >200
IC50 (Hepatitis B virus [1]): 14 µM
CC50 [2]: > 2800 µM
Ratio CC50/IC50 [4]: >156
IC50 (Hepatitis B virus [3]): 18 µM

C[C@H](C[C@H](O[Si](C)(C)C)[C@@H](O[Si](C)(C)C)C(C)(C)O[Si](C)(C)C)C1=C2C[C@H](O[Si](C)(C)C)[C@H]3[C@@]4(C)CCC(=O)C(C)(C)[C@@H]4CC[C@]3(C)[C@@]2(C)CC1
Ratio CC50/IC50 [5]: 2.5
IC50 (Hepatitis B virus [1]): 20 µM
CC50 [2]: 51 µM
Ratio CC50/IC50 [4]: <1
IC50 (Hepatitis B virus [3]): > 51 µM

C[C@H](C[C@H](OC(=O)COc1cc(Cl)c(Cl)cc1Cl)[C@@H](OC(=O)COc1cc(Cl)c(Cl)cc1Cl)C(C)(C)OC(=O)COc1cc(Cl)c(Cl)cc1Cl)C1=C2C[C@H](OC(=O)COc3cc(Cl)c(Cl)cc3Cl)[C@H]3[C@@]4(C)CCC(=O)C(C)(C)[C@@H]4CC[C@]3(C)[C@@]2(C)CC1
IC50 (Hepatitis B virus [1]): > 1200 µM
CC50 [2]: > 1200 µM
IC50 (Hepatitis B virus [3]): > 1200 µM

COCC(=O)OC(C)(C)[C@H](OC(C)=O)[C@H](C[C@@H](C)C1=C2C[C@H](OC(C)=O)[C@H]3[C@@]4(C)CCC(=O)C(C)(C)[C@@H]4CC[C@]3(C)[C@@]2(C)CC1)OC(C)=O
Ratio CC50/IC50 [5]: 209
IC50 (Hepatitis B virus [1]): 4.4 µM
CC50 [2]: 920 µM
Ratio CC50/IC50 [4]: 77
IC50 (Hepatitis B virus [3]): 12 µM

CC(=O)OC1=CC[C@@]2(C)[C@@H](CC[C@@]3(C)[C@H]2[C@@H](OC(C)=O)CC2=C([C@H](C)C[C@H](OC(C)=O)[C@@H](OC(C)=O)C(C)(C)OC(C)=O)CC[C@@]23C)C1(C)C
IC50 (Hepatitis B virus [1]): > 2100 µM
CC50 [2]: > 2100 µM
Ratio CC50/IC50 [4]: >7.5
IC50 (Hepatitis B virus [3]): 280 µM

C[C@H](C[C@H](OC(=O)CN1C(=O)c2ccccc2C1=O)[C@@H](OC(=O)CN1C(=O)c2ccccc2C1=O)C(C)(C)OC(=O)CN1C(=O)c2ccccc2C1=O)C1=C2C[C@H](OC(=O)CN3C(=O)c4ccccc4C3=O)[C@H]3[C@@]4(C)CCC(=O)C(C)(C)[C@@H]4CC[C@]3(C)[C@@]2(C)CC1
IC50 (Hepatitis B virus [1]): > 1300 µM
CC50 [2]: > 1300 µM
IC50 (Hepatitis B virus [3]): > 1300 µM

CCCC(=O)O[C@@H](C[C@@H](C)[C@]12CC[C@@]3(C)[C@@]1(C[C@H](OC(=O)CCC)[C@H]1[C@@]4(C)CCC(=O)C(C)(C)[C@@H]4CC[C@@]13C)O2)[C@@H](OC(=O)CCC)C(C)(C)OC(=O)CCC
IC50 (Hepatitis B virus [1]): > 1900 µM
CC50 [2]: > 1900 µM
IC50 (Hepatitis B virus [3]): > 1900 µM

CCCC(=O)O[C@@H](C[C@@H](C)C1=C2C[C@H](OC(=O)CCC)[C@H]3[C@@]4(C)CCC(=O)C(C)(C)[C@@H]4CC[C@]3(C)[C@@]2(C)CC1)[C@@H](OC(=O)CCC)C(C)(C)OC(=O)CCC
IC50 (Hepatitis B virus [1]): > 1800 µM
CC50 [2]: > 1800 µM
IC50 (Hepatitis B virus [3]): 1800 µM
